Test results taken from US9120804B2, “8-substituted 2-amino-[1,2,4] triazolo [1, 5-A] pyrazines as Syk tryrosine kinase inhibitors and GCN2 serin kinase inhibitors” (Merck Patent GmbH, priority 2012, dated 2015).

target: T1, SYK (Homo sapiens, UniProt P43405); experiment: SYK flash plate assay (enzyme assay); type: biochemical
T1 construct: 2.5 nM SYK, 400 nM Biotin-Aha-Aha-KEDPDYEWPSAKK
Method: The kinase assay is performed either as 384-well Flashplate assay (for e.g. Topcount measurement) or as 384-well Image-Flashplate assay (for LEADseeker measurement).
2.5 nM SYK, 400 nM Biotin-Aha-Aha-KEDPDYEWPSAKK
and 10 μM ATP (spiked with 0.3 μCi 33P-ATP/well) are incubated in a total volume of 50 μl (60 mM Hepes, 10 mM MgCl2, 1.2 mM Dithiothreitol, 0.02% Brij35, 0.1% BSA, pH 7.5) with or without test compound for 1 hours at 30° C. The reaction is stopped with 25 μl 200 mM EDTA. After 30 Min at 30° C. the liquid is removed and each well washed thrice with 100 μl 0.9% sodium chloride solution. Non-specific reaction is determined in presence of […] Staurosporine. Radioactivity is measured with Topcount (when using Flashplates) or with LEADseeker (when using Image-Flashplates) respectively. Results (e.g. IC50-values) are calculated with program tools provided by the IT-department (e.g. Symyx Assay Explorer, Genedata Screener). In Vivo Assays CIA

Row | SMILES | IC50 [nM]
1 | CC1(C)C(=O)Nc2cc(Nc3nc4c(N5CCCC5c5ccccc5)nccn4n3)ccc21 (stereo not shown) [C100, 3,3-dimethyl-6-[8-(2-phenyl-pyrrolidin-1-yl)-[1,2,4]triazolo[1,5-a]pyrazin-2-ylamino]-1,3-dihydro-indol-2-one] | 300 to 3000
2 | CCOC(=O)c1cnn2c1CN(c1nccn3nc(Nc4ccc5c(c4)NC(=O)C5(C)C)nc13)CC2 [C106, 5-[2-(3,3-dimethyl-2-oxo-2,3-dihydro-1H-indol-6-ylamino)-[1,2,4]triazolo[1,5-a]pyrazin-8-yl]-4,5,6,7-tetrahydro-pyrazolo[1,5-a]pyrazine-3-carboxylic acid ethyl ester] | 300 to 3000
3 | CN1CCCC(Nc2nccn3nc(Nc4ccc5c(c4)NC(=O)C5(C)C)nc23)C1 (stereo not shown) [C107, 3,3-dimethyl-6-[8-(1-methyl-piperidin-3-ylamino)[1,2,4]triazolo[1,5-a]yrazin-2-ylamino]-1,3-dihydro-indol-2-one] | 300 to 3000
4 | CC1(C)C(=O)Nc2cc(Nc3nc4c(N5CCCC6(C5)NC(=O)NC6=O)nccn4n3)ccc21 (stereo not shown) [C110, 7-[2-(3,3-dimethyl-2-oxo-2,3-dihydro-1H-indol-6-ylamino)-[1,2,4]triazolo[1,5-a]pyrazin-8-yl]-1,3,7-triaza-spiro[4.5]decane-2,4-dione] | 300 to 3000
5 | COc1cc(Nc2nc3c(N4CCN(C(=O)OC(C)(C)C)CC4)nccn3n2)cc(OC)c1 [D1, 4-[2-(3,5-dimethoxy-phenylamino)-[1,2,4]triazolo[1,5-a]pyrazin-8-yl]-piperazine-1-carboxylic acid tert-butyl ester] | 3000 to 50000
6 | COc1cc(Nc2nc3c(N4CCCC(C(N)=O)C4)nccn3n2)cc(OC)c1 (stereo not shown) [D2, 1-[2-(3,5-dimethoxy-phenylamino)-[1,2,4]triazolo[1,5-a]pyrazin-8-yl]-piperidine-3-carboxylic acid amide] | 300 to 3000
7 | CC1(C)C(=O)Nc2cc(Nc3nc4c(N5CCC(C(=O)NC6CC6)C5)nccn4n3)ccc21 (stereo not shown) [E4, 1-[2-(3,3-dimethyl-2-oxo-2,3-dihydro-1H-indol-6-ylamino)-[1,2,4]triazolo[1,5-a]pyrazin-8-yl]-pyrrolidine-3-carboxylic acid cyclopropylamide] | 100 to 300
8 | CC1(C)C(=O)Nc2cc(Nc3nc4c(N5C[C@@H](O)C[C@@H]5c5ccccc5)nccn4n3)ccc21 [E5, 6-[8-((2R,4S)-4-hydroxy-2-phenyl-pyrrolidin-1-yl)-[1,2,4]triazolo[1,5-a]pyrazin-2-ylamino]-3,3-dimethyl-1,3-dihydro-indol-2-one] | 100 to 300

Second part, the compound after the results:

Row | IC50 [nM] | SMILES
9 | < 100 | CC1(C)C(=O)Nc2cc(Nc3nc4c(-c5cccc(S(N)(=O)=O)c5)nccn4n3)ccc21 [C102, 3-[2-(3,3-dimethyl-2-oxo-2,3-dihydro-1H-indol-6-ylamino)-[1,2,4]triazolo[1,5-a]pyrazin-8-yl]-benzenesulfonamide]
10 | 100 to 300 | CC1(C)C(=O)Nc2cc(Nc3nc4c(N5CC6(C5)NC(=O)NC6=O)nccn4n3)ccc21 [C109, 2-[2-(3,3-dimethyl-2-oxo-2,3-dihydro-1H-indol-6-ylamino)-[1,2,4]triazolo[1,5-a]pyrazin-8-yl]-2,5,7-triaza-spiro[3.4]octane-6,8-dione]
11 | < 100 | CC1(C)C(=O)Nc2cc(Nc3nc4c(N5CCc6nc(O)nc(O)c6C5)nccn4n3)ccc21 [E1, 6-[8-(2,4-dihydroxy-7,8-dihydro-5H-pyrido[4,3-d]pyrimidin-6-yl)-[1,2,4]triazolo[1,5-a]pyrazin-2-ylamino]-3,3-dimethyl-1,3-dihydro-indol-2-one]
12 | < 100 | COC(=O)C1CCN(c2nccn3nc(Nc4ccc5c(c4)NC(=O)C5(C)C)nc23)C1 (stereo not shown) [E2, 1-[2-(3,3-dimethyl-2-oxo-2,3-dihydro-1H-indol-6-ylamino)-[1,2,4]triazolo[1,5-a]pyrazin-8-yl]-pyrrolidine-3-carboxylic acid methyl ester]
13 | < 100 | CC1(C)C(=O)Nc2cc(Nc3nc4c(N5CCC(C(N)=O)C5)nccn4n3)ccc21 (stereo not shown) [E3, 1-[2-(3,3-dimethyl-2-oxo-2,3-dihydro-1H-indol-6-ylamino)-[1,2,4]triazolo[1,5-a]pyrazin-8-yl]-pyrrolidine-3-carboxylic acid amide]
